Data: US20210283091A1, “DECREASING IMMUNE ACTIVITY THROUGH MODULATION OF POSTCELLULAR SIGNALING FACTORS” (FLAGSHIP PIONEERING INNOVATIONS V, INC., priority 2018, published 2021)

Experiments:
C57/B6 mice = experiment: Dextran sodium sulfate colitis in mice; type: in vivo; conditions: 10 mg/kg, i.p., 3-4% dextran sodium sulfate 5 days, compared to vehicle
Experimental: C57/B6 mice are treated with vehicle or Ferrostatin (10 mg/kg, i.p) before the induction of colitis by administration of 3-4% dextran sodium sulfate in the drinking water for 5 days. An anti-inflammatory effect of ferrostatin compared to vehicle is confirmed by […], decreased diarrhea, and decreased weight loss. In addition, inhibition of neutrophil recruitment (innate immune response) by ferrostatin in confirmed by decreased myeloperoxidase activity in the colon (compared to vehicle).

NFKB [1] = experiment: NFKB reporter activity in THP1-Dual monocytes co-cultured with treated A20 cells; type: cell-based, human; conditions: for NFKB signaling in THP1 monocytes: A20 cells treated 24 hours, then co-culture with THP1-Dual cells 24 hours
Experimental: A20 B-cell leukemia cells were treated with either control (DMSO) or various doses of RSL3, for 24 hours prior to co-culture with THP1-Dual cells for an additional 24 hours. RSL3 was purchased from Selleckchem (Houston, Tex.) and dissolved in DMSO. Subsequently, the THP1 supernatants were assessed for NFKB or IRF reporter activity.
A20 cells were acquired from ATCC and THP1-Dual cells acquired from InvivoGen (San Diego, Calif.). Both cell types were cultured in 96-well plates for the duration of the assay. 50,000 A20 cells were plated 24 hours prior to dosing with RSL3, with a final DMSO concentration of 0.5%. 24 hours post-treatment, THP1-Dual cells (25,000 cells/well) were added to the A20 cells. 24 hours later, 30 μl of supernatant was mixed with either 200 μl QuantiBlue (InvivoGen, San Diego, Calif.) or 50 μl QuantiLuc and absorbance or luminescence was recorded on a Molecular Devices plate reader.
A20 lymphoma cells were treated with various doses (e.g. 0.002, 0.005, 0.014, 0.041, 0.123, 0.370, 1.111, 3.333 and 10 μM) of a GPX4 inhibitor (RSL3, ML162 or ML210) in the presence or absence of 1 μM Ferrostatin-1 for 24 hours. ML162 was purchased from Cayman Chemical Company Inc and resuspended in DMSO. ML210 was purchased from Sigma-Aldrich and resuspended in DMSO. A20 lymphoma cells were also treated with DMSO as a negative control. After treatment with DMSO or a GPX4 inhibitor for 24 hours, the A20 lymphoma cells were co-cultured with THP1-Dual cells for an additional 24 hours. Subsequently, the THP1 supernatant was assessed for NFKB reporter activity. A20 cells were acquired from ATCC and THP1-Dual cells were acquired from InvivoGen (San Diego, Calif.). Both cell types were cultured in 96-well plates for the duration of the assay.

NFKB [2] = experiment: NFKB reporter activity in THP1-Dual monocytes co-cultured with treated Caki-1 cells; type: cell-based, human
Experimental: Caki-1 renal cell carcinoma cells were treated with either control (DMSO) or various doses of Erastin, for 24 hours prior to co-culture with THP1-Dual cells for an additional 24 hours. Erastin was purchased from Selleckchem (Houston, Tex.) and dissolved in DMSO. Subsequently, the THP1 supernatants were assessed for NFKB or IRF reporter activity. Caki-1 cells were acquired from ATCC and THP1-Dual cells acquired from InvivoGen (San Diego, Calif.). Both cell types were cultured in 96-well plates for the duration of the assay. 7.500 Caki-1 cells were plated 24 hours prior to dosing with Erastin, with a final DMSO concentration of 0.5%. 24 hours post-treatment, THP1-Dual cells (25,000 cells/well) were added to the Caki-1 cells. 24 hours later, 30 μl of supernatant was mixed with either 200 μl QuantiBlue (InvivoGen) or 50 μl QuantiLuc and absorbance or luminescence was recorded on a Molecular Devices plate reader. Caki-1 renal cell carcinoma cells were treated with either control (DMSO) or various doses of RSL3, for 24 hours prior to co-culture with THP1-Dual cells for an additional 24 hours. RSL3 was purchased from Selleckchem and dissolved in DMSO. Subsequently, the THP1 supernatants were assessed for NFKB or IRF reporter activity. Caki-1 cells were acquired from ATCC and THP1-Dual cells acquired from InvivoGen (San Diego, Calif.). Both cell types were cultured in 96-well plates for the duration of the assay. 7.500 Caki-1 cells were plated 24 hours prior to dosing with […], with a final DMSO concentration of 0.5%. 24 hours post-treatment, THP1-Dual cells (25,000 cells/well) were added to the Caki-1 cells. 24 hours later, 30 μl of supernatant was mixed with either 200 μl QuantiBlue (InvivoGen, San Diego, Calif.) or 50 μl QuantiFuc and absorbance or luminescence was recorded on a Molecular Devices plate reader. […] Subsequently, the THP1 supernatant was assessed for NFKB reporter activity. […]

[3] = test system: A20 B-cell leukemia cells; experiment: Viability of A20 cells treated with GPX4 inhibitor, with or without Ferrostatin-1; type: cell-based; conditions: for viability of A20 cells: various doses, 24 hours treatment
[4] = test system: Caki-1 renal cell carcinoma cells; experiment: Viability of Caki-1 renal cell carcinoma cells treated with ferroptosis inducer, with or without Ferrostatin-1; type: cell-based
[5] = test system: HT1080 fibrosarcoma cells; experiment: Viability of HT1080 fibrosarcoma cells treated with ferroptosis inducer, with or without ferroptosis inhibitor or siRNA; type: cell-based; conditions: various doses, 24 hours treatment
NFKB [6] = experiment: NFKB reporter activity in THP1-Dual monocytes co-cultured with treated HT1080 cells; type: cell-based, human; conditions: HT1080 cells treated 24 hours, then co-culture with THP1-Dual cells 24 hours
Experimental: HT1080 fibrosarcoma cells were treated with either control (DMSO) or various doses of Erastin, piperazine erastin (PE), or imidazole ketoerastin (IKE) for 24 hours prior to co-culture with THP1-Dual cells for an additional 24 hours. Erastin was purchased from Selleckchem (Houston, Tex.) and dissolved in DMSO. Subsequently, the THP1 supernatants were assessed for nuclear factor kappa-light-chain-enhancer of activated B cells (NFKB) or interferon regulatory factor (IRF) reporter activity.
HT1080 cells were acquired from ATCC and THP1-Dual cells were acquired from InvivoGen (San Diego, Calif.). […] 24 hours later, 30 μl of supernatant was mixed with either 200 μl QuantiBlue (InvivoGen, San Diego, Calif.) (for NFKB reporter activity) or 50 μl QuantiLuc (for IRF reporter activity) and absorbance or luminescence was recorded on a Molecular Devices plate reader.
HT1080 fibrosarcoma cells were treated with various doses of Erastin (e.g. 0.8, 0.16, 0.31, 0.63, 1.25, 2.5, 5, 10 or 20 μM) alone or in combination with a ferroptosis inhibitor (1 μM Ferrostatin-1, 1 μM Liproxstatin-1, 100 μM Trolox, 25 μM β-Mercaptoethanol or 100 μM Deferoxamine) for 24 hours prior to co-culture with THP1-Dual cells for an additional 24 hours. […] Subsequently, the THP1 supernatant was assessed for NFKB activity. […]

CCOC(=O)c1ccc(NC2CCCCC2)c(N)c1 [Ferrostatin-1]
colon length (C57/B6 mice): decreased
diarrhea (C57/B6 mice): decreased
myeloperoxidase activity in the colon (C57/B6 mice): decreased
weight loss (C57/B6 mice): decreased
effect on NFKB activity in THP1 cells increased by GPX4 inhibitor-treated A20 lymphoma cells (NFKB [1]; 1 μM Ferrostatin-1): attenuated
effect on NFKB activity in THP1 cells increased by RSL3- or ML162-treated Caki-1 cells (NFKB [2]; 1 μM Ferrostatin): attenuated
effect on viability of A20 lymphoma cells decreased by GPX4 inhibitor (RSL3, ML162 or ML210) ([3]; 1 μM Ferrostatin-1, 24 hours): attenuated
effect on viability of Caki-1 renal carcinoma cells decreased by GPX4 inhibitor (RSL3 or ML162) ([4]; 1 μM Ferrostatin, 24 hours): attenuated

CC(C)Oc1ccc(C(=O)Cn2ccnc2)cc1-n1c(CN2CCN(C(=O)COc3ccc(Cl)cc3)CC2)nc2ccccc2c1=O [IKE, imidazole ketoerastin]
viability of HT1080 cells [5]: negatively affected the viability
NFKB signaling in THP1 monocytes (NFKB [6]): elicited NFKB signaling

COc1ccc(N(C(=O)CCl)C(C(=O)NCCc2ccccc2)c2cccs2)cc1Cl (stereo not drawn) [ML162]
NFKB signaling in THP1 monocytes (NFKB [1]): increased NFKB activity in THP1 cells in a dose dependent manner
NFKB signaling in THP1 monocytes (NFKB [2]; Caki-1 cells treated 24 hours, then co-culture with THP1-Dual cells 24 hours): increased NFKB activity in THP1 cells in a dose dependent manner
viability of A20 cells [3]: decreased viability of the cells in a dose dependent manner
viability of Caki-1 cells ([4]; various doses, 24 hours treatment): decreased viability of the cells in a dose dependent manner

Cc1onc(C(=O)N2CCN(C(c3ccc(Cl)cc3)c3ccc(Cl)cc3)CC2)c1[N+](=O)[O-] [ML210]
NFKB signaling in THP1 monocytes (NFKB [1]): increased NFKB activity in THP1 cells in a dose dependent manner
viability of A20 cells [3]: decreased viability of the cells in a dose dependent manner

CC(C)Oc1ccc(CN2CCNCC2)cc1-n1c(CN2CCN(C(=O)COc3ccc(Cl)cc3)CC2)nc2ccccc2c1=O [PE, piperazine erastin]
viability of HT1080 cells [5]: negatively affected the viability
NFKB signaling in THP1 monocytes (NFKB [6]): elicited NFKB signaling
